Reference: patent US20090264401A1, “SUBSTITUTED PYRIMIDIN-5-CARBOXAMIDES 281” (AstraZeneca AB, priority 2008, published 2009)

Molecular target: T1, human 11βHSD1 enzyme (Homo sapiens, UniProt P28845)
T1 construct: baculovirus expressed N terminal 6-His tagged full length human 11βHSD1 enzyme; 6-His (N); made in house
Assay: 11βHSD1 cortisone to cortisol conversion, competitive HTRF assay
Format: biochemical
Conditions: for inhibition at 30 µM: human 11-βHSD, test concentration of 30 μM of compound
Protocol: The evaluation of compounds described herein was carried out using a baculovirus expressed N terminal 6-His tagged full length human 11βHSD1 enzyme(*1). The enzyme was purified from a detergent solubilised cell lysate, using a copper chelate column. Inhibitors of 11βHSD1 reduce the conversion of cortisone to cortisol, which is identified by an increase in signal, in the above assay.
Compounds to be tested were dissolved in dimethyl sulphoxide (DMSO) to 10 mM and diluted further in assay buffer containing 1% DMSO to 10 fold the final assay concentration. Diluted compounds were then plated into black 384 well plates (Matrix, Hudson N.H., USA).
Fluorescence at 665 nm and 620 nm was measured and the 665 nm:620 nm ratio calculated using an Envision plate reader.

T1 sequence (P28845 whole entry): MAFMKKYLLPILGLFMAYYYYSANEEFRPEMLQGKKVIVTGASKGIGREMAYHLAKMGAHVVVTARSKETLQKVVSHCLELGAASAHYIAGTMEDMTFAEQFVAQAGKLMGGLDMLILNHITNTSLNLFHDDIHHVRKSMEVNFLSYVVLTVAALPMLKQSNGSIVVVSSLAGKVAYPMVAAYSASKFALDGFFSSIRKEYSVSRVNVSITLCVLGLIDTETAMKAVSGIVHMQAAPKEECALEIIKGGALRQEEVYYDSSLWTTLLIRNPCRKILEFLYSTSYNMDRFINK

| SMILES | inhibition at 30 µM [%] | IC50 (recombinant N terminal 6-His tagged full length human 11βHSD1, cortisone 160 nM, 25 minutes at 37° C.) [nM] |
| --- | --- | --- |
| O=C(N[C@H]1C2CC3CC1C[C@@](O)(C3)C2)c1cnc(N2CC[S+]([O-])CC2)nc1C1CC1 [Example 36, 4-Cyclopropyl-N-[(2r,5s)-5-hydroxyadamantan-2-yl]-2-(1-oxo-1,4-thiazinan-4-yl)pyrimidine-5-carboxamide] | 99.5 |  |
| CNc1ncc(C(=O)N[C@H]2C3CC4CC2C[C@@](O)(C4)C3)c([C@H]2CCCO2)n1 [Example 167, N-[(2r,5s)-5-hydroxyadamantan-2-yl]-2-methylamino-4-[(2R)-oxolan-2-yl]pyrimidine-5-carboxamide] | 101 |  |
| Cc1ncc(C(=O)N[C@H]2C3CC4CC2C[C@@](O)(C4)C3)c(OC2CCC2)n1 [Example 203, 4-Cyclobutyloxy-N-[(2r,5 s)-5-hydroxyadamantan-2-yl]-2-methylpyrimidine-5-carboxamide] | 98.6 |  |
| COc1ncc(C(=O)N[C@H]2C3CC4CC2C[C@@](O)(C4)C3)c(C2CCCC2)n1 [Example 117, 4-cyclopentyl-N-[(2r,5s)-5-hydroxyadamantan-2-yl]-2-methoxypyrimidine-5-carboxamide] | 97.4 |  |
| Cc1ncc(C(=O)N[C@H]2C3CC4CC2C[C@@](O)(C4)C3)c(OC2CCCC2)n1 [Example 204, 4-Cyclopentyloxy-N-[(2r,5s)-5-hydroxyadamantan-2-yl]-2-methylpyrimidine-5-carboxamide] | 106 |  |
| O=C(N[C@H]1C2CC3CC1C[C@@](O)(C3)C2)c1cnc(N2CCC2)nc1C1CCCC1 [Example 131, 2-(azetidin-1-yl)-4-cyclopentyl-N-[(2r,5s)-5-hydroxyadamantan-2-yl]pyrimidine-5-carboxamide] | 101 |  |
| CC(C)Oc1nc(N2C[C@@H](C)O[C@@H](C)C2)ncc1C(=O)N[C@H]1C2CC3CC1C[C@@](O)(C3)C2 [Example 214, 2-[(2R,6S)-2,6-dimethylmorpholin-4-yl]-N-[(2r,5s)-5-hydroxytricyclo[3.3.1.13,7]dec-2-yl]-4-(1-methylethoxy)pyrimidine-5-carboxamide] | 103 |  |
| CSc1ncc(C(=O)N[C@H]2C3CC4CC2C[C@@](O)(C4)C3)c(C2CCCCC2)n1 [Example 195, 4-Cyclohexyl-N-[(2r,5 s)-5-hydroxyadamantan-2-yl]-2-(methylthio)pyrimidine-5-carboxamide] | 103 |  |
| CC(C)Nc1ncc(C(=O)N[C@H]2C3CC4CC2C[C@@](O)(C4)C3)c(C2CCC2)n1 [Example 94, 4-cyclobutyl-N-[(2r,5s)-5-hydroxyadamantan-2-yl]-2-(isopropylamino)pyrimidine-5-carboxamide] | 103 |  |
| O=C(N[C@H]1C2CC3CC1C[C@@](O)(C3)C2)c1cnc(NC2COC2)nc1C1CCCO1 (stereo partly drawn) [Example 164, N-[(2r,5s)-5-hydroxyadamantan-2-yl]-2-(oxetan-3-ylamino)-4-(oxolan-2-yl)pyrimidine-5-carboxamide] | 98.9 |  |
| CNc1ncc(C(=O)N[C@H]2C3CC4CC2C[C@@](O)(C4)C3)c([C@@H]2CCCO2)n1 [Example 178, N-[(2r,5s)-5-hydroxyadamantan-2-yl]-2-methylamino-4-[(2S)-oxolan-2-yl]pyrimidine-5-carboxamide] | 95.3 |  |
| CCCSc1nc(N2CCN(S(C)(=O)=O)CC2)ncc1C(=O)NC1C2CC3CC(C2)CC1C3 (stereo not drawn) [Example 28, N-(2-adamantyl)-2-(4-methylsulfonylpiperazin-1-yl)-4-propylsulfanyl-pyrimidine-5-carboxamide] | 103 |  |
| C[C@@H]1CN(c2ncc(C(=O)N[C@H]3C4CC5CC3C[C@@](O)(C5)C4)c(C3CC(F)(F)C3)n2)C[C@H](C)O1 [Example 156, 4-(3,3-difluorocyclobutyl)-2-[(2S,6R)-2,6-dimethylmorpholin-4-yl]-N-[(2r,5s)-5-hydroxyadamantan-2-yl]pyrimidine-5-carboxamide] | 65.5 |  |
| Cc1ncc(C(=O)N[C@H]2C3CC4CC2C[C@@](O)(C4)C3)c(OC(C)C)n1 [Example 202, N-[(2r,5s)-5-hydroxyadamantan-2-yl]-2-methyl-4-propan-2-yloxypyrimidine-5-carboxamide] | 102 |  |
| COCCN1CCN(c2ncc(C(=O)N[C@H]3C4CC5CC3C[C@@](O)(C5)C4)c(C3CC3)n2)CC1 [Example 55, 4-cyclopropyl-N-[(2r,5s)-5-hydroxyadamantan-2-yl]-2-[4-(2-methoxyethyl)piperazin-1-yl]pyrimidine-5-carboxamide] | 96.9 |  |
| O=C(NC1C2CC3CC1CC(O)(C3)C2)c1cnc(N2C[C@@H]3C[C@H]2CO3)nc1C1CCC1 (stereo partly drawn) [Example 103, 4-cyclobutyl-N-[(2r,5s)-5-hydroxyadamantan-2-yl]-2-[(1S,4S)-2-oxa-5-azabicyclo[2.2.1]hept-5-yl]pyrimidine-5-carboxamide] | 95.7 |  |

| SMILES | inhibition at 30 µM [%] | IC50 (recombinant N terminal 6-His tagged full length human 11βHSD1, cortisone 160 nM, 25 minutes at 37° C.) [nM] |
| --- | --- | --- |
| CCCSc1nc(N2CCN(C(C)=O)CC2)ncc1C(=O)N[C@H]1C2CC3CC1C[C@@](O)(C3)C2 [Example 26, 2-(4-Acetylpiperazin-1-yl)-N-[(2r,5 s)-5-hydroxyadamantan-2-yl]-4-propylsulfanylpyrimidine-5-carboxamide] | 89 |  |
| CCCSc1nc(N2C[C@@H](C)O[C@@H](C)C2)ncc1C(=O)N[C@H]1C2CC3CC1C[C@@](O)(C3)C2 [Example 23, 2-[(2s,6r)-2,6-Dimethylmorpholin-4-yl]-N-[(2r,5s)-5-hydroxyadamantan-2-yl]-4-propylsulfanylpyrimidine-5-carboxamide] | 97.4 |  |
| Cc1ncc(C(=O)N[C@H]2C3CC4CC2C[C@@](O)(C4)C3)c(C2CCC(F)(F)C2)n1 (stereo partly drawn) [Example 184, 4-(3,3-Difluorocyclopentyl)-N-[(2r,5s)-5-hydroxyadamantan-2-yl]-2-methylpyrimidine-5-carboxamide] | 108 |  |
| CCCSc1nc(N2CCC[C@@H](CC(=O)OC)C2)ncc1C(=O)NC1CCCCC1 [Example 19, (S)-Methyl 2-(1-(5-(cyclohexylcarbamoyl)-4-(propylthio)pyrimidin-2-yl)piperidin-3-yl)acetate] | 100 | 14 |
| O=C(N[C@H]1C2CC3CC1C[C@@](O)(C3)C2)c1cnc(NC2CCOCC2)nc1[C@H]1CCCO1 [Example 174, N-[(2r,5s)-5-hydroxyadamantan-2-yl]-2-(oxan-4-ylamino)-4-[(2R)-oxolan-2-yl]pyrimidine-5-carboxamide] | 95 |  |
| O=C(N[C@H]1C2CC3CC1C[C@@](O)(C3)C2)c1cnc(N2CC[S+]([O-])CC2)nc1C1CCCC1 [Example 115, 4-Cyclopentyl-N-[(2r,5 s)-5-hydroxyadamantan-2-yl]-2-(1-oxo-1,4-thiazinan-4-yl)pyrimidine-5-carboxamide] | 93.4 |  |
| O=C(N[C@H]1C2CC3CC1C[C@@](O)(C3)C2)c1cnc(N2CCC2)nc1C1CC1 [Example 53, 2-(azetidin-1-yl)-4-cyclopropyl-N-[(2r,5s)-5-hydroxyadamantan-2-yl]pyrimidine-5-carboxamide] | 102 |  |
| O=C(N[C@H]1C2CC3CC1C[C@@](O)(C3)C2)c1cnc(N2CCSCC2)nc1C1CC1 [Example 35, 4-Cyclopropyl-N-[(2r,5s)-5-hydroxyadamantan-2-yl]-2-thiomorpholin-4-ylpyrimidine-5-carboxamide] | 106 |  |
| O=C(N[C@H]1C2CC3CC1C[C@@](O)(C3)C2)c1cnc(NC2CCC2)nc1C1CCC1 [Example 98, N-[(2r,5s)-5-hydroxyadamantan-2-yl] 4-cyclobutyl-2-(cyclobutylamino)pyrimidine-5-carboxamide] | 97.8 |  |
| O=C(N[C@H]1C2CC3CC1C[C@@](O)(C3)C2)c1cnc(N2CCC2)nc1C1CCC1 [Example 85, 2-Azetidin-1-yl-4-cyclobutyl-N-[(2r,5s)-5-hydroxyadamantan-2-yl]pyrimidine-5-carboxamide] | 88.8 |  |
| COCc1nc(N2C[C@@H](C)O[C@@H](C)C2)ncc1C(=O)N[C@H]1C2CC3CC1C[C@@](O)(C3)C2 [Example 219, 2-[(2S,6R)-2,6-Dimethylmorpholin-4-yl]-N-[(2r,5s)-5-hydroxyadamantan-2-yl]-4-(methoxymethyl)pyrimidine-5-carboxamide] | 98.6 |  |
| O=C(N[C@H]1C2CC3CC1C[C@@](O)(C3)C2)c1cnc(N2CCS(=O)(=O)CC2)nc1C1CC1 [Example 37, 4-Cyclopropyl-2-(1,1-dioxo-1,4-thiazinan-4-yl)-N-[(2r,5s)-5-hydroxyadamantan-2-yl]pyrimidine-5-carboxamide] | 93.5 |  |
| CCCSc1ncc(C(=O)N[C@H]2C3CC4CC2C[C@@](O)(C4)C3)c(NC)n1 [Example 22, N-[(2r,5s)-5-hydroxyadamantan-2-yl]-4-methylamino-2-propylsulfanylpyrimidine-5-carboxamide] | 89.5 |  |
| O=C(N[C@H]1C2CC3CC1C[C@](O)(C3)C2)c1cnc(NC2CCC2)nc1C1CCCC1 [Example 129, 4-cyclopentyl-2-(cyclobutylamino)-N-[(2r,5s)-5-hydroxyadamantan-2-yl]pyrimidine-5-carboxamide] | 95.5 |  |
| O=C(N[C@H]1C2CC3CC1C[C@@](O)(C3)C2)c1cnc(N2CC[S+]([O-])CC2)nc1C1CCC1 [Example 82, 4-Cyclobutyl-N-[(2r,5 s)-5-hydroxyadamantan-2-yl]-2-(1-oxo-1,4-thiazinan-4-yl)pyrimidine-5-carboxamide] | 95.2 |  |
| O=C(N[C@H]1C2CC3CC1C[C@@](O)(C3)C2)c1cnc(NC2CC2)nc1C1CCCC1 [Example 122, 4-cyclopentyl-2-(cyclopropylamino)-N-[(2r,5s)-5-hydroxyadamantan-2-yl]pyrimidine-5-carboxamide] | 97.5 |  |
